Assay results published in US20100254928A1, “NOVEL COMPOSITION CONTAINING OZONIZED SURFACTANT” (priority 2007, published 2010).

Test system: Escherichia coli
Assay: Minimum bactericidal concentration test
Type: cell-based
Conditions: 24 h, 30° C.
Procedure: Here, the ozonized surfactant was diluted 100-fold, and therefore the ozonized surfactant was considered to be ineffective. […] [table]

With “Ozonized POE (10 EO) oleyl ether [Example 4]” the Minimum bactericidal concentration was 0.30%.
